Reference: the supplement of paper PMC11061612

Assays:
Test in all cases: combination Emax (second highest fraction inhibited in the dose matrix, 72 h); higher = more inhibition; extreme values may be limits of the assay
[1] = test system: BFTC-905 (Bladder Carcinoma)
Method in brief: (§1)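 Bliss excess equals the observed combination effect minus the expected value EA + EB − EA·EB, where EA and EB are the effects of each agent alone. Combination Emax is the second-highest inhibition within the matrix. Inhibition was scaled from CellTiter-Glo 2.0 luminescence, with 0 set by vehicle wells and 1 by blank wells, after 72 hours of two-drug dosing of cells plated in 1536-well plates.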

[2] = test system: CAMA-1 (Breast Carcinoma)
Method in brief: as §1

CHP-212 (Neuroblastoma) = test system: CHP-212 (Neuroblastoma)
Method in brief: as §1

ES8 (Ewing's Sarcoma) = test system: ES8 (Ewing's Sarcoma)
Method in brief: as §1

[3] = test system: GR-ST (B-Lymphoblastic Leukemia)
Method in brief: as §1

[4] = test system: HDQ-P1 (Breast Carcinoma)
Method in brief: as §1

[5] = test system: HL-60 (Acute Myeloid Leukemia)
Method in brief: as §1

[6] = test system: K-562 (Chronic Myelogenous Leukemia)
Method in brief: as §1

[7] = test system: KCL-22 (Chronic Myelogenous Leukemia)
Method in brief: as §1

[8] = test system: MFM-223 (Breast Carcinoma)
Method in brief: as §1

[9] = test system: MKN28 (Gastric Carcinoma)
Method in brief: as §1

[10] = test system: MOLT-16 (T-Lymphoblastic Leukemia)
Method in brief: as §1

[11] = test system: NCI-H1792 (Lung Adenocarcinoma)
Method in brief: as §1

NCI-H2818 (Mesothelioma) = test system: NCI-H2818 (Mesothelioma)
Method in brief: as §1

[12] = test system: P12-ICHIKAWA (T-Lymphoblastic Leukemia)
Method in brief: as §1

[13] = test system: PANC-08-13 (Pancreatic Carcinoma)
Method in brief: as §1

[14] = test system: SW1417 (Colorectal Carcinoma)
Method in brief: as §1

[15] = test system: SW837 (Colorectal Carcinoma)
Method in brief: as §1

[16] = test system: TOV-112D (Ovarian Carcinoma)
Method in brief: as §1

U251 (Low Grade Glioma) = test system: U251 (Low Grade Glioma)
Method in brief: as §1

Row | SMILES | combination Emax [1] | combination Emax [2] | combination Emax (CHP-212 (Neuroblastoma)) | combination Emax (ES8 (Ewing's Sarcoma)) | combination Emax [3] | combination Emax [4] | combination Emax [5] | combination Emax [6] | combination Emax [7] | combination Emax [8] | combination Emax [9] | combination Emax [10] | combination Emax [11] | combination Emax (NCI-H2818 (Mesothelioma)) | combination Emax [12] | combination Emax [13] | combination Emax [14] | combination Emax [15] | combination Emax [16] | combination Emax (U251 (Low Grade Glioma))
1 | CN(CCO)CC[C@H](CSc1ccccc1)Nc1ccc(S(=O)(=O)NC(=O)c2ccc(N3CCC([C@@H](O)c4ccccc4-c4ccc(Cl)cc4)CC3)cc2)cc1S(=O)(=O)C(F)(F)F [AZD4320] + Cc1cc2ncnn2cc1Nc1ncc2c(n1)n(C1CCOCC1)c(=O)n2C [AZD7648] (first compound max 1 µM, 7x7, partner max 10 µM) | 0.117 | 0.229 | 0.379 | 0.57 | 0.371 | 0.522 | 0.923 | 0.17 | 0.462 | 0.223 | 0.153 | 1 | 0.287 | 0.364 | 1 | 0.391 | 0.798 | 0.201 | 0.318 | 0.118
2 | CC(=O)Nc1cccc(-n2c(=O)n(C3CC3)c(=O)c3c(Nc4ccc(I)cc4F)n(C)c(=O)c(C)c32)c1 [Trametinib] + Cc1nc(-c2cn3c(n2)-c2ccc(-c4cnn(C(C)(C)C(N)=O)c4)cc2OCC3)n(C(C)C)n1 [Taselisib] (first compound max 1 µM, 7x7, partner max 10 µM) | 1 | 0.491 | 1 | 0.844 | 0.633 | 0.915 | 0.958 | 0.495 | 0.801 | 0.865 | 0.708 | 0.776 | 1 | 0.428 | 0.658 | 0.655 | 0.775 | 0.738 | 0.641 | 0.848
3 | C=CCn1c(=O)c2cnc(Nc3ccc(N4CCN(C)CC4)cc3)nc2n1-c1cccc(C(C)(C)O)n1 [AZD1775] + C1CN(CCC1(C(=O)N[C@@H](CCO)C2=CC=C(C=C2)Cl)N)C3=NC=NC4=C3C=CN4 [Capivasertib] (first compound max 3 µM, partner max 3 µM) | 0.904 | 0.775 | 0.859 | 0.943 | 0.818 | 0.856 | 0.849 | 0.895 | 0.962 | 0.711 | 0.609 | 1 | 0.808 | 0.493 | 1 | 0.544 | 0.544 | 0.692 | 0.889 | 0.671
4 | CC1(C)CCC(CN2CCN(c3ccc(C(=O)NS(=O)(=O)c4ccc(NCC5CCOCC5)c([N+](=O)[O-])c4)c(Oc4cnc5[nH]ccc5c4)c3)CC2)=C(c2ccc(Cl)cc2)C1 [Venetoclax] + C[C@@H](Nc1cc(F)cc(F)c1)c1cc(C(=O)N(C)C)cc2c(=O)cc(N3CCOCC3)oc12 [AZD8186] (first compound max 1 µM, 7x7, partner max 3 µM) | 0.108 | 0.434 | 0.314 | 0.834 | 0.633 | 0.211 | 0.942 | 0.347 | 0.299 | 0.11 | 0.115 | 0.629 | 0.109 | 0.129 | 0.0737 | 0.184 | 0.172 | 0.0406 | 0.102 | 0.0464
5 | NC1(C(=O)N[C@@H](CCO)c2ccc(Cl)cc2)CCN(c2ncnc3[nH]ccc23)CC1 [Capivasertib] + COc1nnc2ccc(N3CCC(c4ccc(OCCN5CCN(C)C(=O)[C@H]5C)cc4)CC3)nn12 [AZD5153] (first compound max 10 µM, 7x7, partner max 1 µM) | 0.681 | 0.928 | 0.932 | 0.798 | 0.832 | 0.416 | 1 | 0.528 | 0.792 | 0.852 | 0.488 | 1 | 0.537 | 0.238 | 0.994 | 0.668 | 0.482 | 0.538 | 0.665 | 0.578
6 | CC(=O)c1c(C)c2cnc(Nc3ccc(N4CCNCC4)cn3)nc2n(C2CCCC2)c1=O [Palbociclib] + Cc1c2c(nn1C)CSCc1cc(n(C)n1)CSc1cc(c3ccccc3c1)OCCCc1c(C(=O)O)n(C)c3c-2c(Cl)ccc13 [AZD5991] (first compound max 10 µM, 7x7, partner max 1 µM) | 0.474 | 0.408 | 0.882 | 0.65 | 0.719 | 0.263 | 0.994 | 0.132 | 0.673 | 0.388 | 0.133 | 1 | 0.571 | 0.367 | 0.83 | 0.221 | 0.229 | 0.161 | 0.776 | 0.297
7 | COc1cccc(OCCCN)c1-c1cc(Nc2cnc(C#N)cn2)n[nH]1 [Prexasertib] + CCc1c2c(nc3ccc(O)cc13)-c1cc3c(c(=O)n1C2)COC(=O)[C@]3(O)CC [SN-38] (first compound max 1 µM, 7x7, partner max 0.3 µM) | 0.983 | 0.507 | 0.827 | 0.989 | 0.871 | 0.944 | 0.982 | 0.983 | 0.989 | 0.881 | 0.742 | 1 | 0.893 | 0.423 | 1 | 0.702 | 0.856 | 0.844 | 0.987 | 0.984
8 | Cc1c2c(nn1C)CSCc1cc(n(C)n1)CSc1cc(c3ccccc3c1)OCCCc1c(C(=O)O)n(C)c3c-2c(Cl)ccc13 [AZD5991] + C[C@@H]1COCCN1C2=NC(=NC(=C2)C3(CC3)[S@](=N)(=O)C)C4=C5C=CNC5=NC=C4 [AZD6738] (first compound max 1 µM, 7x7, partner max 10 µM) | 0.862 | 0.751 | 0.939 | 0.891 | 0.716 | 0.387 | 1 | 0.864 | 0.997 | 0.824 | 0.405 | 1 | 0.731 | 0.496 | 1 | 0.419 | 0.453 | 0.354 | 0.963 | 0.648
9 | CC1(C)CCC(CN2CCN(c3ccc(C(=O)NS(=O)(=O)c4ccc(NCC5CCOCC5)c([N+](=O)[O-])c4)c(Oc4cnc5[nH]ccc5c4)c3)CC2)=C(c2ccc(Cl)cc2)C1 [Venetoclax] + Cc1cc2ncnn2cc1Nc1ncc2c(n1)n(C1CCOCC1)c(=O)n2C [AZD7648] (first compound max 1 µM, 7x7, partner max 10 µM) | 0.207 | 0.228 | 0.314 | 0.427 | 0.679 | 0.189 | 0.778 | 0.339 | 0.159 | 0.161 | 0.229 | 0.855 | 0.397 | 0.352 | 0.298 | 0.218 | 0.25 | 0.102 | 0.315 | 0.202
10 | Cc1c2c(nn1C)CSCc1cc(n(C)n1)CSc1cc(c3ccccc3c1)OCCCc1c(C(=O)O)n(C)c3c-2c(Cl)ccc13 [AZD5991] + CN(C)CCCOc1ccc(-c2ccc3ncc4c(c3c2)n(C2CCOCC2)c(=O)n4C)cn1 [AZD0156] (first compound max 1 µM, 7x7, partner max 1 µM) | 0.273 | 0.555 | 0.837 | 0.385 | 0.502 | 0.195 | 1 | 0.172 | 0.926 | 0.238 | 0.275 | 1 | 0.345 | 0.355 | 0.994 | 0.211 | 0.263 | 0.208 | 0.551 | 0.607
11 | COc1nnc2ccc(N3CCC(c4ccc(OCCN5CCN(C)C(=O)[C@H]5C)cc4)CC3)nn12 [AZD5153] + C=CCn1c(=O)c2cnc(Nc3ccc(N4CCN(C)CC4)cc3)nc2n1-c1cccc(C(C)(C)O)n1 [AZD1775] (first compound max 1 µM, partner max 1 µM) | 0.63 | 0.453 | 0.958 | 0.779 | 0.832 | 0.523 | 0.932 | 0.616 | 0.927 | 0.538 | 0.525 | 1 | 0.83 | 0.327 | 1 | 0.679 | 0.601 | 0.715 | 0.815 | 0.799
12 | CC(=O)c1c(C)c2cnc(Nc3ccc(N4CCNCC4)cn3)nc2n(C2CCCC2)c1=O [Palbociclib] + Cn1cnc2c(F)c(Nc3ccc(Br)cc3Cl)c(C(=O)NOCCO)cc21 [Selumetinib] (first compound max 10 µM, 7x7, partner max 10 µM) | 0.746 | 0.102 | 0.979 | 0.823 | 0.726 | 0.289 | 0.667 | 0.237 | 0.569 | 0.317 | 0.3 | 0.827 | 0.651 | 0.208 | 0.77 | 0.221 | 0.512 | 0.532 | 0.473 | 0.297
